According to ChEMBL document CHEMBL3797179, “Probing for improved selectivity with dipeptide-derived inhibitors of dipeptidyl peptidases 8 and 9: the impact of P1-variation” (Medchemcomm, 2016):

Tests used:
[1] = Inhibition of bovine testes DPP9 using Ala-Pro-p-nitroanilide as substrate preincubated for 15 mins followed by substrate addition measured for 10 mins by […]; design: species or system Bos taurus
Prolyl endopeptidase FAP = target: T1, Prolyl endopeptidase FAP (Mus musculus, UniProt P97321); assay: Inhibition of BALB/c mouse 5'-His6-tagged 3'-FLAG-tagged FAP fused with ECD expressed in HEK293 cells using Ala-Pro-p-nitroanilide as substrate preincubated for 15 mins followed by substrate addition measured for 10 mins by […]; assay type: cell-based
T1 sequence (P97321 whole entry): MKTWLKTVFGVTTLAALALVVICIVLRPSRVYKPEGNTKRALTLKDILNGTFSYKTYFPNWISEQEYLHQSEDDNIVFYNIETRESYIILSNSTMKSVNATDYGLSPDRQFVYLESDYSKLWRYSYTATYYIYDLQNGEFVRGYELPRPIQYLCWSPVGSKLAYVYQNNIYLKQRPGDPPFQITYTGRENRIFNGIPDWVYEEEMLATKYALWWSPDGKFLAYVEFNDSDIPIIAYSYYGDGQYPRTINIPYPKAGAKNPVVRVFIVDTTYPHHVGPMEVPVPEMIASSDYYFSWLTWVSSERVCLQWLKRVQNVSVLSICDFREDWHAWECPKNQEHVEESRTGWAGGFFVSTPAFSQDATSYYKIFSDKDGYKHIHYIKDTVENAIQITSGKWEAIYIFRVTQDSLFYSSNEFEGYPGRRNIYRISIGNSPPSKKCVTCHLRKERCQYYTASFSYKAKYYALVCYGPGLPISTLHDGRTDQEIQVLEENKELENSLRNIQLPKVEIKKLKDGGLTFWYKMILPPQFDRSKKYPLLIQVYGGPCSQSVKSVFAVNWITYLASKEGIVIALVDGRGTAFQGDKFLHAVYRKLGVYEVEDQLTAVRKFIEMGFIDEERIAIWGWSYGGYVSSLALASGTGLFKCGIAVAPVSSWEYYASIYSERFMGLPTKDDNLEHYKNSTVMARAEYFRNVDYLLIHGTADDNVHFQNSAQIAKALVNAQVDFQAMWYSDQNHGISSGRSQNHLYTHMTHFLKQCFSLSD

Dipeptidyl peptidase 2 = Dipeptidyl peptidase 2 (Homo sapiens, UniProt Q9UHL4); assay: Inhibition of DPP2 in human seminal plasma using Lys-Ala-p-nitroanilide as substrate preincubated for 15 mins followed by substrate addition measured for 10 mins by […]; assay type: cell-free
Dipeptidyl peptidase 8 = Dipeptidyl peptidase 8 (Homo sapiens, UniProt Q6V1X1); assay: Inhibition of full length human DPP8 expressed in baculovirus infected sf9 cells using Ala-Pro-p-nitroanilide as substrate preincubated for 15 mins followed by substrate addition measured for 10 mins by […]
Chain of Dipeptidyl peptidase 8 (Q6V1X1 whole entry): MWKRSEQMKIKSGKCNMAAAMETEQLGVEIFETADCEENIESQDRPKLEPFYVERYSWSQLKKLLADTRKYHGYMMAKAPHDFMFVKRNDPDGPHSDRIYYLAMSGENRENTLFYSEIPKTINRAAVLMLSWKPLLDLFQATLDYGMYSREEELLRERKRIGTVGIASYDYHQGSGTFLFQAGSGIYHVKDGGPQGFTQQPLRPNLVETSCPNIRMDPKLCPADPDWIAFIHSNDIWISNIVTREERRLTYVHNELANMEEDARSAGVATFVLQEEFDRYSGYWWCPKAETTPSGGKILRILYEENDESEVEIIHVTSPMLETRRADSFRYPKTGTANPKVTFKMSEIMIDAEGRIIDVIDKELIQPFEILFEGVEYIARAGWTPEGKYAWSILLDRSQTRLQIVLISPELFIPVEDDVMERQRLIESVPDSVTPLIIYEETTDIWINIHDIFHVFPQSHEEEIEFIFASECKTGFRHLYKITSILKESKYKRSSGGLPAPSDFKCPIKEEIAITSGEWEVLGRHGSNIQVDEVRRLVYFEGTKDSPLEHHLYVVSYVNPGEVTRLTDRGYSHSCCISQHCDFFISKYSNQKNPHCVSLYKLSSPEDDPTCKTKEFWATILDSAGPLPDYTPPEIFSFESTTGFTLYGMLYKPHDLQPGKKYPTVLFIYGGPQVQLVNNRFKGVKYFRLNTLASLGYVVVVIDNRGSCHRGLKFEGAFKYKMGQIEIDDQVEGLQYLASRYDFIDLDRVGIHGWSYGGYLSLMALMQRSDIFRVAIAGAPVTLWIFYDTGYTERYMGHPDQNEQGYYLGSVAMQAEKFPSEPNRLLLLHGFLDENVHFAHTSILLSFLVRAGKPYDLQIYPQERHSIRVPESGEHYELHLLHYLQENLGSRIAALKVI

Dipeptidyl peptidase 4 = Dipeptidyl peptidase 4 (Homo sapiens, UniProt P27487); assay: Inhibition of DPP4 in human seminal plasma using Gly-Pro-p-nitroanilide as substrate preincubated for 15 mins followed by substrate addition measured for 10 mins by […]; assay type: cell-free
Chain of Dipeptidyl peptidase 4 (P27487 whole entry): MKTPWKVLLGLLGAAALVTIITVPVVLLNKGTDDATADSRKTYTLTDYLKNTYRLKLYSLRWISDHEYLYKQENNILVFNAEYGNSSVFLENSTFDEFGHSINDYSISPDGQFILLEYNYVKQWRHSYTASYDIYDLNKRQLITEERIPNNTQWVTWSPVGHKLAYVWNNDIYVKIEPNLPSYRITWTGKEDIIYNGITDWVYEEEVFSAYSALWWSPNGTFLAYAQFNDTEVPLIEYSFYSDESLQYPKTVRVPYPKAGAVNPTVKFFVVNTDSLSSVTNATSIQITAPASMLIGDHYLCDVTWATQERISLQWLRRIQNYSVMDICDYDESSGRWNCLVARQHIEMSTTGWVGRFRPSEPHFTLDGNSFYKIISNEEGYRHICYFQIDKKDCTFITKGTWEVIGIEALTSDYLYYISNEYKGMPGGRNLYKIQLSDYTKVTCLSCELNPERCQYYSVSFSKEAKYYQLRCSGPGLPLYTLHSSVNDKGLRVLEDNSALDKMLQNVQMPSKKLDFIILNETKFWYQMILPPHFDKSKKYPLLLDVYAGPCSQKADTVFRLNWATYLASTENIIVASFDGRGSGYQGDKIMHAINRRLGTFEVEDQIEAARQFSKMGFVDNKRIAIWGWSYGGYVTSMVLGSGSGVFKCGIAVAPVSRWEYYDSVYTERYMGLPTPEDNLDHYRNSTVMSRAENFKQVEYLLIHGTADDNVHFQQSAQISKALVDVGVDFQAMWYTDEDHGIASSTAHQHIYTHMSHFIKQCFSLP

IC50 [1] | IC50 (Dipeptidyl peptidase 2) | SMILES | other results
30 µM | > 100 µM | Cc1nc2c(s1)CN(C(=O)[C@@H](N)CC(=O)N1CCN(C(c3ccc(F)cc3)c3ccc(F)cc3)CC1)C2 | 
5.7 µM |  | CCC1CCN(C(=O)[C@@H](N)[C@H](C)CC)C1 (stereo partly specified) | 
> 100 µM | > 100 µM | CC[C@@H](C)[C@H](N)C(=O)N1Cc2nc(C)sc2C1 | IC50 (Dipeptidyl peptidase 8): > 25 µM
2.4 µM |  | N[C@@H](CC(=O)N1CCN(C(c2ccc(F)cc2)c2ccc(F)cc2)CC1)C(=O)N1Cc2conc2C1 | 
4.7 µM |  | CC[C@@H](C)[C@H](N)C(=O)N1CCC(C)C1 (stereo partly specified) | 
16 µM | > 100 µM | C=C1CCN(C(=O)[C@@H](N)[C@H](C)CC)C1 | IC50 (Dipeptidyl peptidase 4): > 50 µM
2.84 µM | > 100 µM | CC[C@@H](C)[C@H](N)C(=O)N1C[C@H]2C[C@H]2[C@H]1C#N | 
> 100 µM | > 100 µM | CC[C@@H](C)[C@H](N)C(=O)N1Cc2cn[nH]c2C1 | IC50 (Dipeptidyl peptidase 8): > 100 µM
42 µM |  | CC[C@@H](C)[C@H](N)C(=O)N1Cc2conc2C1 | 
> 25 µM | > 100 µM | N[C@@H](CC(=O)N1CCN(C(c2ccc(F)cc2)c2ccc(F)cc2)CC1)C(=O)N1Cc2cn[nH]c2C1 | IC50 (Dipeptidyl peptidase 8): > 100 µM

More lines, now with the values behind:

SMILES | IC50 [1] | IC50 (Dipeptidyl peptidase 2) | other results
N[C@@H](CC(=O)N1CCN(C(c2ccc(F)cc2)c2ccc(F)cc2)CC1)C(=O)N1Cc2ccccc2C1 | 0.084 µM |  | IC50 (Prolyl endopeptidase FAP): > 100 µM
N#C[C@@H]1[C@@H]2C[C@@H]2CN1C(=O)[C@@H](N)CC(=O)N1CCN(C(c2ccc(F)cc2)c2ccc(F)cc2)CC1 | 0.0218 µM |  | 
CCC1CCN(C(=O)[C@@H](N)CC(=O)N2CCN(C(c3ccc(F)cc3)c3ccc(F)cc3)CC2)C1 (stereo partly specified) | 0.36 µM |  | IC50 (Prolyl endopeptidase FAP): > 100 µM
N#C[C@@H]1C[C@H](N=[N+]=[N-])CN1C(=O)[C@@H](N)CC(=O)N1CCN(C(c2ccc(F)cc2)c2ccc(F)cc2)CC1 | 0.23 µM | > 25 µM | 
C=C1C[C@@H](C#N)N(C(=O)[C@@H](N)CC(=O)N2CCN(C(c3ccc(F)cc3)c3ccc(F)cc3)CC2)C1 | 0.083 µM |  | 
C[C@H]1C[C@@H](C#N)N(C(=O)[C@@H](N)CC(=O)N2CCN(C(c3ccc(F)cc3)c3ccc(F)cc3)CC2)C1 | 0.012 µM |  | 
N[C@@H](CC(=O)N1CCN(C(c2ccc(F)cc2)c2ccc(F)cc2)CC1)C(=O)N1CCC(C(F)(F)F)C1 (stereo partly specified) | 3.5 µM |  | 
CC1CCN(C(=O)[C@@H](N)CC(=O)N2CCN(C(c3ccc(F)cc3)c3ccc(F)cc3)CC2)C1 (stereo partly specified) | 0.17 µM |  | IC50 (Prolyl endopeptidase FAP): > 100 µM
C=C1CCN(C(=O)[C@@H](N)CC(=O)N2CCN(C(c3ccc(F)cc3)c3ccc(F)cc3)CC2)C1 | 0.41 µM | > 100 µM | 
CC[C@@H](C)[C@H](N)C(=O)N1Cc2ccccc2C1 |  |  | IC50 (Prolyl endopeptidase FAP): > 100 µM
CC[C@@H](C)[C@H](N)C(=O)N1C[C@@H](N=[N+]=[N-])C[C@H]1C#N |  |  | IC50 (Prolyl endopeptidase FAP): > 100 µM
